Measurements from patent publication US6921770B2 (priority 2000, dated 2005).

System: rice blast fungi
Format: in vivo, Pyricularia grisea

Row | Compound | Inhibiting Ratio (%) (at 250 ppm)
1 | COc1ccc(N=c2scc(CC(=O)Nc3ccc(Cl)cc3)n2C)cc1.Cl [Compound 118, 2-(4-methoxyphenylimino)-3-methyl-4-[N-(4-chlorophenyl)carbamoylmethyl]-1,3-thiazol-4-ine hydrochloride] | 99
2 | CCCCc1ccc(N=c2scc(CC(=O)Nc3ccc(Cl)cc3)n2C)cc1.Cl [Compound 124, 2-[4-(n-butyl)phenylimino]-3-methyl-4-[N-(4-chlorophenyl)carbamoylmethyl]-1,3-thiazol-4-ine hydrochloride] | 93
3 | Cl.Cn1c(CC(=O)Nc2ccc(Cl)cc2)csc1=Nc1cccc(F)c1 [Compound 129, 2-(3-fluorophenylimino)-3-methyl-4-[N-(4-chlorophenyl)carbamoylmethyl]-1,3-thiazol-4-ine hydrochloride] | 96
4 | Cl.Cn1c(CC(=O)Nc2ccc(Cl)cc2)csc1=Nc1ccc(Br)cc1 [Compound 130, 2-(4-bromophenylimino)-3-methyl-4-[N-(4-chlorophenyl)carbamoylmethyl]-1,3-thiazol-4-ine hydrochloride] | 98
5 | Cl.Cn1c(CC(=O)Nc2ccc(Cl)cc2)csc1=Nc1ccccc1-c1ccccc1 [Compound 131, 2-(2-phenylphenylimino)-3-methyl-4-[N-(4-chlorophenyl)carbamoylmethyl]-1,3-thiazol-4-ine hydrochloride] | 96
6 | Cl.Cn1c(CC(=O)Nc2ccc(Br)cc2)csc1=Nc1ccc(C(F)(F)F)cc1 [Compound 132, 2-(4-trifluoromethylphenylimino)-3-methyl-4-[N-(4-bromophenyl)carbamoylmethyl]-1,3-thiazol-4-ine hydrochloride] | 99
7 | Cl.Cn1c(CC(=O)Nc2ccc(Br)cc2)csc1=Nc1ccc(F)cc1F [Compound 133, 2-(2,4-difluorophenylimino)-3-methyl-4-[N-(4-bromophenyl)carbamoylmethyl]-1,3-thiazol-4-ine hydrochloride] | 99
8 | Cl.Cn1c(CC(=O)Nc2ccc(Br)cc2)csc1=Nc1cccc(Cl)c1F [Compound 134, 2-(3-chloro-2-fluorophenylimino)-3-methyl-4-[N-(4-bromophenyl)carbamoylmethyl]-1,3-thiazol-4-ine hydrochloride] | 98
9 | Cc1ccc(N=c2scc(CC(=O)Nc3ccc(Br)cc3)n2C)c(C)c1.Cl [Compound 135, 2-(2,4-dimethylphenylimino)-3-methyl-4-[N-(4-bromophenyl)carbamoylmethyl]-1,3-thiazol-4-ine hydrochloride] | 98
10 | Cl.Cn1c(CC(=O)Nc2ccc(Br)cc2)csc1=Nc1ccc(F)cc1 [Compound 136, 2-(4-fluorophenylimino)-3-methyl-4-[N-(4-bromophenyl)carbamoylmethyl]-1,3-thiazol-4-ine hydrochloride] | 97
11 | Cl.Cn1c(CC(=O)Nc2ccc(Br)cc2)csc1=Nc1cccc(Br)c1 [Compound 137, 2-(3-bromophenylimino)-3-methyl-4-[N-(4-bromophenyl)carbamoylmethyl]-1,3-thiazol-4-ine hydrochloride] | 97
12 | Cl.Cn1c(CC(=O)Nc2ccc(Br)cc2)csc1=Nc1cc(Cl)cc(Cl)c1 [Compound 138, 2-(3,5-dichlorophenylimino)-3-methyl-4-[N-(4-bromophenyl)carbamoylmethyl]-1,3-thiazol-4-ine hydrochloride] | 95
13 | Cl.Cn1c(CC(=O)Nc2ccc(Br)cc2)csc1=Nc1ccc(OC(F)(F)F)cc1 [Compound 139, 2-(4-trifluoromethoxyphenylimino)-3-methyl-4-[N-(4-bromophenyl)carbamoylmethyl]-1,3-thiazol-4-ine hydrochloride] | 99
14 | Cl.Cn1c(CC(=O)Nc2ccc(Br)cc2)csc1=Nc1ccc(F)cc1Cl [Compound 140, 2-(2-chloro-4-fluorophenylimino)-3-methyl-4-[N-(4-bromophenyl)carbamoylmethyl]-1,3-thiazol-4-ine hydrochloride] | 99
15 | Cl.Cn1c(CC(=O)Nc2ccc(Br)cc2)csc1=Nc1ccc(Oc2ccccc2)cc1 [Compound 141, 2-(4-phenoxyphenylimino)-3-methyl-4-[N-(4-bromophenyl)carbamoylmethyl]-1,3-thiazol-4-ine hydrochloride] | 99
16 | Cc1cc(Br)ccc1N=c1scc(CC(=O)Nc2ccc(Br)cc2)n1C.Cl [Compound 142, 2-(4-bromo-2-methylphenylimino)-3-methyl-4-[N-(4-bromophenyl)carbamoylmethyl]-1,3-thiazol-4-ine hydrochloride] | 98
17 | Cl.Cn1c(CC(=O)Nc2ccc(Br)cc2)csc1=Nc1ccc(Br)cc1 [Compound 143, 2-(4-bromophenylimino)-3-methyl-4-[N-(4-bromophenyl)carbamoylmethyl]-1,3-thiazol-4-ine hydrochloride] | 95

Row | Compound | Inhibiting Ratio (%) (at 250 ppm)
18 | Cl.Cn1c(CC(=O)Nc2ccc(Br)cc2)csc1=Nc1ccc([N+](=O)[O-])cc1 [Compound 144, 2-(4-nitrophenylimino)-3-methyl-4-[N-(4-bromophenyl)carbamoylmethyl]-1,3-thiazol-4-ine hydrochloride] | 97
19 | CCCCc1ccc(N=c2scc(CC(=O)Nc3ccc(Br)cc3)n2C)cc1.Cl [Compound 147, 2-[4-(n-butyl)phenylimino]-3-methyl-4-[N-(4-bromophenyl)carbamoylmethyl]-1,3-thiazol-4-ine hydrochloride] | 96
20 | Cl.Cn1c(CC(=O)Nc2ccc(Br)cc2)csc1=Nc1ccccc1F [Compound 148, 2-(2-fluorophenylimino)-3-methyl-4-[N-(4-bromophenyl)carbamoylmethyl]-1,3-thiazol-4-ine hydrochloride] | 95
21 | Cl.Cn1c(CC(=O)Nc2ccccc2F)csc1=Nc1ccc(F)c(Cl)c1 [Compound 149, 2-(3-chloro-4-fluorophenylimino)-3-methyl-4-[N-(2-fluorophenyl)carbamoylmethyl]-1,3-thiazol-4-ine hydrochloride] | 95
22 | Cl.Cn1c(CC(=O)Nc2ccccc2F)csc1=Nc1ccc(Cl)cc1F [Compound 150, 2-(4-chloro-2-fluorophenylimino)-3-methyl-4-[N-(2-fluorophenyl)carbamoylmethyl]-1,3-thiazol-4-ine hydrochloride] | 96
23 | CC(C)Oc1cc(N=c2scc(CC(=O)Nc3ccccc3F)n2C)c(F)cc1Cl.Cl [Compound 151, 2-(4-chloro-2-fluoro-5-isopropoxyphenylimino)-3-methyl-4-[N-(2-fluorophenyl)carbamoylmethyl]-1,3-thiazol-4-ine hydrochloride] | 96
24 | Cl.Cn1c(CC(=O)Nc2ccccc2F)csc1=Nc1cccc(Br)c1 [Compound 153, 2-(3-bromophenylimino)-3-methyl-4-[N-(2-fluorophenyl)carbamoylmethyl]-1,3-thiazol-4-ine hydrochloride] | 99
25 | Cc1ccc(N=c2scc(CC(=O)Nc3ccc(Cl)cc3)n2C)c(C)c1.Cl [Compound 154, 2-(2,4-dimethylphenylimino)-3-methyl-4-(N-(4-chlorophenyl)carbamoylmethyl)-1,3-thiazol-4-ine hydrochloride] | 93
26 | Cl.Cn1c(CC(=O)Nc2ccc(Cl)cc2)csc1=Nc1ccc(F)c(Cl)c1 [Compound 155, 2-(3-chloro-4-fluorophenylimino)-3-methyl-4-[N-(4-chlorophenyl)carbamoylmethyl]-1,3-thiazol-4-ine hydrochloride] | 96
27 | Cl.Cn1c(CC(=O)Nc2ccc(Cl)cc2)csc1=Nc1cccc(Br)c1 [Compound 156, 2-(3-bromophenylimino)-3-methyl-4-[N-(4-chlorophenyl)carbamoylmethyl]-1,3-thiazol-4-ine hydrochloride] | 96
28 | Cl.Cn1c(CC(=O)Nc2ccc(Cl)cc2)csc1=Nc1ccc(Cl)cc1F [Compound 158, 2-(4-chloro-2-fluorophenylimino)-3-methyl-4-[N-(4-chlorophenyl)carbamoylmethyl]-1,3-thiazol-4-ine hydrochloride] | 90
29 | Cl.Cn1c(CC(=O)Nc2ccc(Cl)cc2)csc1=Nc1ccc(F)cc1F [Compound 159, 2-(2,4-difluorophenylimino)-3-methyl-4-[N-(4-chlorophenyl)carbamoylmethyl]-1,3thiazol-4-ine hydrochloride] | 92
30 | Cl.Cn1c(CC(=O)Nc2ccc(Cl)cc2)csc1=Nc1ccccc1F [Compound 160, 2-(2-fluorophenylimino)-3-methyl-4-[N-(4-chlorophenyl)carbamoylmethyl]-1,3-thiazol-4-ine hydrochloride] | 88
31 | CC(C)Oc1cc(N=c2scc(CC(=O)Nc3ccc(Cl)cc3)n2C)c(F)cc1Cl.Cl [Compound 161, 2-(4-chloro-5-isopropoxy-2-fluorophenylimino)-3-methyl-4-[N-(4-chlorophenyl)carbamoylmethyl]-1,3-thiazol-4-ine hydrochloride] | 86
32 | Cc1ccc(NC(=O)Cc2csc(=Nc3ccc(Br)cc3)n2C)cc1.Cl [Compound 162, 2-(4-bromophenylimino)-3-methyl-4-[N-(4-methylphenyl)carbamoylmethyl]-1,3-thiazol-4-ine hydrochloride] | 89
33 | Cc1ccc(NC(=O)Cc2csc(=Nc3ccccc3F)n2C)cc1.Cl [Compound 167, 2-(2-fluorophenylimino)-3-methyl-4-[N-(4-methylphenyl)carbamoylmethyl]-1,3-thiazol-4-ine hydrochloride] | 88
34 | Cc1ccc(NC(=O)Cc2csc(=Nc3cc(OC(C)C)c(Cl)cc3F)n2C)cc1.Cl [Compound 168, 2-(4-chloro-5-isopropoxy-2-fluorophenylimino)-3-methyl-4-[N-(4-methylphenyl)carbamoylmethyl-]-1,3-thiazol-4-ine hydrochloride] | 92
